Measurements taken from ChEMBL document CHEMBL3102755, “Diphenylpropane Derivatives as Agonist of PPAR Nuclear Receptors” (ACS Med Chem Lett, 2013).
Active and inactive are the calls of the source. The calls are words filed in the database; no cut-off is given here.

What was measured:
[1] = molecular target: T1, Peroxisome proliferator-activated receptor gamma (Homo sapiens, UniProt P37231); assay: Agonist activity at human PPARgamma ligand binding domain expressed in monkey COS7 cells cotransfected with Gal4 by luciferase reporter gene assay; assay type: cell-based, COS-7
T1 sequence (P37231 whole entry): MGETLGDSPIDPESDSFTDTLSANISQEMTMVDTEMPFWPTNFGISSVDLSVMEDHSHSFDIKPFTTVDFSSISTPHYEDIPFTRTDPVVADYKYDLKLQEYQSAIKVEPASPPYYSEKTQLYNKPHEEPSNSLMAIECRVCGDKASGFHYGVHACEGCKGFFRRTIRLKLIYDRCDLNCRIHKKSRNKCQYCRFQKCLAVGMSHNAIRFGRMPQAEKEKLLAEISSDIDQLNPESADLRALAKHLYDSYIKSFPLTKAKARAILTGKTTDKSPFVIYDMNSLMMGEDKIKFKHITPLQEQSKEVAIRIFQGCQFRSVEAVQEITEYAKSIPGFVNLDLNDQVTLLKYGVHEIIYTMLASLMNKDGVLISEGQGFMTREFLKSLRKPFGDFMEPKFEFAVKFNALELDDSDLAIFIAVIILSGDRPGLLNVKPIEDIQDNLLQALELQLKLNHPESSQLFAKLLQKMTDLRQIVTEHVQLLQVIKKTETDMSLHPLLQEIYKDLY

[2] = molecular target: T2, Peroxisome proliferator-activated receptor delta (Homo sapiens, UniProt Q03181); assay: Agonist activity at human PPARdelta ligand binding domain expressed in monkey COS7 cells cotransfected with Gal4 by luciferase reporter gene assay; assay type: cell-based, COS-7
T2 sequence (Q03181 whole entry): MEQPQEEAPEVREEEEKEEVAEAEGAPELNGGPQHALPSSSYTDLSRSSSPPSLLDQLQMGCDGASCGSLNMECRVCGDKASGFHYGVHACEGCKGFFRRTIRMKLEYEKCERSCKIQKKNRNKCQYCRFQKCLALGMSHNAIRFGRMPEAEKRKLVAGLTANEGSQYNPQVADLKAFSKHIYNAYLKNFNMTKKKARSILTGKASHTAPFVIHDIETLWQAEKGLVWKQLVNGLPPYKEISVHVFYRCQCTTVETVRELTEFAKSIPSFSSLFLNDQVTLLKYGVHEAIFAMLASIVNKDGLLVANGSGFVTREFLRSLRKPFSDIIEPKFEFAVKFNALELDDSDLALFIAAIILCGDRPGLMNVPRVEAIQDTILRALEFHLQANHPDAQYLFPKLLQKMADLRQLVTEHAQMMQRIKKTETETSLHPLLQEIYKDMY

[3] = molecular target: T3, Peroxisome proliferator-activated receptor alpha (Homo sapiens, UniProt Q07869); assay: Agonist activity at human PPARalpha ligand binding domain expressed in monkey COS7 cells cotransfected with Gal4 by luciferase reporter gene assay; assay type: cell-based, COS-7
T3 sequence (Q07869 whole entry): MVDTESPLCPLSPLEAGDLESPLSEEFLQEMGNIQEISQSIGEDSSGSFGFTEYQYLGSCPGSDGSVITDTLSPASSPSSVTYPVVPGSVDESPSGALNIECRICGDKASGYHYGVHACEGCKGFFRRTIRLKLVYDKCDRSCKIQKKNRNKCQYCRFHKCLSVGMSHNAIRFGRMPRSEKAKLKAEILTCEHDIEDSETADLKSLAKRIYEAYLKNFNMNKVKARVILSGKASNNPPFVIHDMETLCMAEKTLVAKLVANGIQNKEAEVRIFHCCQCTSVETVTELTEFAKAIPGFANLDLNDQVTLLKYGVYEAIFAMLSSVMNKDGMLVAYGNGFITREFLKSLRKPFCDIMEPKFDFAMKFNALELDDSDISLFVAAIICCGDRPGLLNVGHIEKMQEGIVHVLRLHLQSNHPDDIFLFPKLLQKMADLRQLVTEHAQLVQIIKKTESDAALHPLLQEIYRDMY

[4] = Ratio of AUC (0 to 24 hrs) in brain to plasma in mouse at 2 mg/kg, iv and 10 mg/kg, po; assay type: ADME, organism-based; settings: read-out: BPR
Mus musculus [5] = assay: Antialzheimer activity in APPPS1 transgenic C57BL/6J mouse model assessed as decrease in beta-amyloid accumulation in brain at 1 to 10 mg/kg; assay type: functional, organism-based
Mus musculus [6] = assay: Cognitive enhancing effect in APPPS1 transgenic C57BL/6J mouse model at 1 to 10 mg/kg for 60 days by Morris-Water maze assay; assay type: functional, organism-based

| SMILES | EC50 [1] [µM] | EC50 [2] [µM] | EC50 [3] [µM] | EC50 ([1]; cos-7) [µM] | Kp [4] | Activity (Mus musculus [5]) | Activity (Mus musculus [6]) |
| --- | --- | --- | --- | --- | --- | --- | --- |
| Cc1cc(C2CC2C(OC(=O)c2ccccc2)c2ccc(OC(F)(F)F)cc2)cc(C)c1OC(C)(C)C(=O)O (single isomer, unassigned; diastereomer 1) | 0.116 | 0.079 | 0.021 |  |  |  |  |
| Cc1cc(C2CC2C(OC(=O)c2ccccc2)c2ccc(OC(F)(F)F)cc2)cc(C)c1OC(C)(C)C(=O)O (single isomer, unassigned; diastereomer 2) | 0.023 | 0.122 | 0.1 |  |  |  |  |
| COC(c1ccc(OC(F)(F)F)cc1)C1CC1c1cc(C)c(OC(C)(C)C(=O)O)c(C)c1 (single isomer, unassigned; enantiomer 1) |  |  |  | 0.016 | 0.37 | Active | Active |
